Results: the NIST ThermoML archive (doi:10.1021/je060479w)
± gives the expanded uncertainty stated by the source.

Conditions: for electrical conductivity / mass density / viscosity: 298.2 K, 101.33 kPa, Liquid; for electrical conductivity: Alternating current cell with electrodes; for mass density: Pycnometric method; for viscosity: rotary viscometer; for Normal melting temperature: Crystal; for Normal melting temperature / Glass transition temperature: DTA

Compound | electrical conductivity [S/m] | mass density [kg/m3] | viscosity [mPa·s] | Normal melting temperature [°C] | Glass transition temperature [°C]
CC(=O)[O-].[NH3+]CCO [2-hydroxyethylammonium acetate] | 0.0692 ± 0.0001 | 1120 ± 26 | 640 | -70.9 ± 0.5 | -75.8 ± 5
NCCO.O=CO [2-hydroxyethylammonium formate] | 0.3291 ± 0.0001 | 1204 ± 26 | 118 | -82.2 ± 0.5 | -85.9 ± 5
CC(O)C(=O)[O-].[NH3+]CCO (stereo unspecified) [2-hydroxyethylammonium lactate] | 0.03775 ± 1e-05 | 1202 ± 26 | 1200 | -58.5 ± 0.5 | -63.7 ± 5
O=CO.OCCN(CCO)CCO [triethanolamine formate] |  |  |  | 67.6 ± 0.5 | 
CC(O)C(=O)O.OCCN(CCO)CCO [triethanolamine lactate] | 0.009 ± 0.001 | 1222 ± 26 | 455 | -54.8 ± 0.5 | -59.4 ± 5
CC(=O)O.OCCN(CCO)CCO [triethanolammonium acetate] | 0.04958 ± 1e-05 | 1120 ± 26 | 342 | -72.2 ± 0.5 | -78.8 ± 5
